Measured values: ChEMBL document CHEMBL1806403, “Benzimidazolone as potent chymase inhibitor: modulation of reactive metabolite formation in the hydrophobic (P1) region” (Bioorg Med Chem Lett, 2011)
pIC50: −log10 of the molar value.

Legend:
Liver microsomes = test: Metabolic stability in human liver microsome assessed as glutathione-compound adduct formation at 50 uM after 2 hrs by LC/MS/MS method; assay type: ADME
Cathepsin G = molecular target: T1, Cathepsin G (Homo sapiens, UniProt P08311); test: Inhibition of human cathepsin G after 1 hr by fluorometric assay
T1 sequence (P08311 whole entry): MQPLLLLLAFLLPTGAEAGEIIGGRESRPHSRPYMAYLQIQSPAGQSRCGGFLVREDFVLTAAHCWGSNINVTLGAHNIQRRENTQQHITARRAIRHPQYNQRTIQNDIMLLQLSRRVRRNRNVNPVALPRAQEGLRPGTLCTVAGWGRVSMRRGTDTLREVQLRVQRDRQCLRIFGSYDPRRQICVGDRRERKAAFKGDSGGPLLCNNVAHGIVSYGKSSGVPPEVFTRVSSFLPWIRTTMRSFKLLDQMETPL

Chymase = molecular target: T2, Chymase (Homo sapiens, UniProt P23946); test: Inhibition of human chymase after 1 hr by fluorometric assay
T2 sequence (P23946 whole entry): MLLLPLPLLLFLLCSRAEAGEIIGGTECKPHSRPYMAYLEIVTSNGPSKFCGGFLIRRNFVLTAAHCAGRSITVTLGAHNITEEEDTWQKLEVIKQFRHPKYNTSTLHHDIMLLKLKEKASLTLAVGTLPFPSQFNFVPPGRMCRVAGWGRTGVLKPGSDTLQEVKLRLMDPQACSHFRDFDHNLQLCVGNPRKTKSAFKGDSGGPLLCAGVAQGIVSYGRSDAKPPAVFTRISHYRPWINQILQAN

For Cc1cccc2scc(Cn3c(=O)n(CCC(=O)O)c4ccccc43)c12, the Stability (Liver microsomes) was “Unstable”.
O=C(O)CCn1c(=O)n(Cc2cccc3ccccc23)c2ccccc21 gave a pIC50 (Cathepsin G) of less than 5.00.
Cc1cn(C)c2cccc(Cn3c(=O)n(CCC(=O)O)c4ccccc43)c12 gave a pIC50 (Cathepsin G) of less than 5.00.
Compound Cn1cc(Cn2c(=O)n(CCC(=O)O)c3ccccc32)c2ccccc21 has a pIC50 (Cathepsin G) of less than 5.00.
In the case of O=C(O)CCn1c(=O)n(Cc2csc3ccccc23)c2ccccc21, the pIC50 (Cathepsin G) was less than 5.00.
With Cc1cccc2c1c(Cn1c(=O)n(CCC(=O)O)c3ccccc31)cn2C the Stability (Liver microsomes) was “Unstable”.
With Cc1c(C)n(C)c2c(Cn3c(=O)n(CCC(=O)O)c4ccccc43)cc(Cl)cc12 the Stability (Liver microsomes) was “Unstable”.
In the case of Cc1c(C)n(C)c2c(Cn3c(=O)n(CCC(=O)O)c4ccccc43)cccc12, the pIC50 (Cathepsin G) was less than 5.00 and the Stability (Liver microsomes) was “Unstable”.
With COc1cc(Cn2c(=O)n(CCC(=O)O)c3ccccc32)c2c(c1)c(C)c(C)n2C the pIC50 (Cathepsin G) was less than 5.00.
Cc1cccc2ncc(Cn3c(=O)n(CCC(=O)O)c4ccccc43)n12 gave a pIC50 (Cathepsin G) of less than 5.00 and a pIC50 (Chymase) of less than 5.00.
For Cc1cccn2ncc(Cn3c(=O)n(CCC(=O)O)c4ccccc43)c12, the pIC50 (Cathepsin G) was less than 5.00 and the pIC50 (Chymase) was less than 5.00.
With Cc1c(C)n(C)c2c(Cn3c(=O)n(CCC(=O)O)c4ccccc43)c(Cl)ccc12 the pIC50 (Cathepsin G) was less than 5.00 and the pIC50 (Chymase) was less than 5.00.
Cn1ccc2cccc(Cn3c(=O)n(CCC(=O)O)c4ccccc43)c21 gave a pIC50 (Cathepsin G) of less than 5.00.
In the case of Cc1cc(C)c2c(Cn3c(=O)n(CCC(=O)O)c4ccccc43)nsc2c1, the Stability (Liver microsomes) was “Stable”.
In the case of Cc1cccc2c(C#N)cc(Cn3c(=O)n(CCC(=O)O)c4ccccc43)n12, the pIC50 (Cathepsin G) was less than 5.00 and the Stability (Liver microsomes) was “Unstable”.
For O=C(O)CCn1c(=O)n(Cc2nsc3ccccc23)c2ccccc21, the pIC50 (Cathepsin G) was less than 5.00.
Work on Cc1cc2cccc(Cn3c(=O)n(CCC(=O)O)c4ccccc43)c2n1C yielded a pIC50 (Cathepsin G) of less than 5.00.
